Laboratory results from PubChem BioAssay (NCI).
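Values below derive from 48-hour exposures of cells grown in 96-well plates, with endpoints linearly interpolated between the two concentrations bracketing the appropriate inhibition level. Definition used: TGI = concentration required for complete inhibition of growth.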

Assays:
Experiment in all cases: inhibition of tumour cell growth, NCI panel, 48 h
786-0 renal = test system: 786-0 renal
A498 renal = test system: A498 renal
A549 NSCLC = test system: A549 NSCLC
ACHN renal = test system: ACHN renal
CAKI-1 renal = test system: CAKI-1 renal
CCRF-CEM leukemia = test system: CCRF-CEM leukemia
DLD-1 colon = test system: DLD-1 colon
EKVX NSCLC = test system: EKVX NSCLC
HCT-116 colon = test system: HCT-116 colon
HCT-15 colon = test system: HCT-15 colon
HL-60(TB) leukemia = test system: HL-60(TB) leukemia
HOP-18 NSCLC = test system: HOP-18 NSCLC
HOP-62 NSCLC = test system: HOP-62 NSCLC
HOP-92 NSCLC = test system: HOP-92 NSCLC
HT29 colon = test system: HT29 colon
IGROV1 ovarian = test system: IGROV1 ovarian
K-562 leukemia = test system: K-562 leukemia
KM12 colon = test system: KM12 colon
KM20L2 colon = test system: KM20L2 colon
LOX IMVI melanoma = test system: LOX IMVI melanoma
LXFL 529 NSCLC = test system: LXFL 529 NSCLC
M14 melanoma = test system: M14 melanoma
M19-MEL melanoma = test system: M19-MEL melanoma
MALME-3M melanoma = test system: MALME-3M melanoma
NCI-H226 lung = test system: NCI-H226 lung
NCI-H23 lung = test system: NCI-H23 lung
NCI-H460 lung = test system: NCI-H460 lung
NCI-H522 lung = test system: NCI-H522 lung
OVCAR-3 ovarian = test system: OVCAR-3 ovarian
OVCAR-4 ovarian = test system: OVCAR-4 ovarian
OVCAR-5 ovarian = test system: OVCAR-5 ovarian
OVCAR-8 ovarian = test system: OVCAR-8 ovarian
RPMI-8226 leukemia = test system: RPMI-8226 leukemia
RXF 393 renal = test system: RXF 393 renal
RXF-631 renal = test system: RXF-631 renal
SF-268 CNS = test system: SF-268 CNS
SF-295 CNS = test system: SF-295 CNS
SF-539 CNS = test system: SF-539 CNS
SK-MEL-2 melanoma = test system: SK-MEL-2 melanoma
SK-MEL-5 melanoma = test system: SK-MEL-5 melanoma
SK-OV-3 ovarian = test system: SK-OV-3 ovarian
SN12C renal = test system: SN12C renal
SNB-19 CNS = test system: SNB-19 CNS
SNB-75 CNS = test system: SNB-75 CNS
SNB-78 CNS = test system: SNB-78 CNS
SR leukemia = test system: SR leukemia
SW-620 colon = test system: SW-620 colon
TK-10 renal = test system: TK-10 renal
U251 CNS = test system: U251 CNS
UACC-257 melanoma = test system: UACC-257 melanoma
UACC-62 melanoma = test system: UACC-62 melanoma
UO-31 renal = test system: UO-31 renal
XF 498 CNS = test system: XF 498 CNS
COLO 205 colon = test system: COLO 205 colon
DMS 114 small cell lung = test system: DMS 114 small cell lung
HCC-2998 colon = test system: HCC-2998 colon
MOLT-4 leukemia = test system: MOLT-4 leukemia
SK-MEL-28 melanoma = test system: SK-MEL-28 melanoma
DMS 273 small cell lung = test system: DMS 273 small cell lung

Measured: TGI

Cc1ccc(S(=O)(=O)N/N=C(\CCN2CCCC2)CC(c2ccccc2)c2c(O)c3ccccc3oc2=O)cc1 (stereo not given)
not listed: COLO 205 colon | DMS 114 small cell lung | HCC-2998 colon | MOLT-4 leukemia | SK-MEL-28 melanoma | DMS 273 small cell lung
> 100 µM: all other assays above

CC[C@@H]1C[C@@H]2CN3CCc4c([nH]c5ccc(OC)cc45)C(COC(=O)c4ccc(OC)c(OC)c4)(C2)C13
74.3 µM: KM20L2 colon
98.8 µM: UO-31 renal
43 µM: K-562 leukemia
28 µM: UACC-62 melanoma
78.4 µM: SR leukemia
62.3 µM: MOLT-4 leukemia
61.4 µM: A498 renal
70.6 µM: SF-295 CNS
39.2 µM: HL-60(TB) leukemia | HT29 colon
55 µM: SF-539 CNS
93 µM: HOP-62 NSCLC
41.8 µM: M14 melanoma
40.1 µM: SW-620 colon
39.3 µM: SN12C renal
97.2 µM: TK-10 renal
35.1 µM: LXFL 529 NSCLC
84.1 µM: NCI-H460 lung
37.8 µM: UACC-257 melanoma
44 µM: HCT-116 colon
38.8 µM: NCI-H23 lung
33.8 µM: NCI-H226 lung
32.2 µM: HOP-92 NSCLC
71.8 µM: DMS 114 small cell lung
55.4 µM: HCC-2998 colon
46.1 µM: XF 498 CNS
95.7 µM: CCRF-CEM leukemia
86.4 µM: RPMI-8226 leukemia
74.5 µM: IGROV1 ovarian
27.6 µM: LOX IMVI melanoma
62.6 µM: RXF 393 renal
43.6 µM: U251 CNS
not listed: DLD-1 colon | MALME-3M melanoma | NCI-H522 lung | RXF-631 renal | SK-MEL-2 melanoma | SK-MEL-5 melanoma | SK-OV-3 ovarian | DMS 273 small cell lung
> 100 µM: all other assays above

O=C(O)c1ccc(S(=O)(=O)c2ccccc2)c([N+](=O)[O-])c1
not listed: OVCAR-8 ovarian | RXF-631 renal | XF 498 CNS
> 100 µM: all other assays above
